In US9889081B2, “Aldehyde dehydrogenase inhibitors as novel depigmenting agents” (The Regents of the University of California, priority 2008, dated 2018):

Assays:
MNT-1 cells = assay: Drug treatment, pigmentation in MNT-1 cells; type: cell-based, human; details: doses equivalent to those required for inhibition of Aldh activity in culture
From the text: For further analyses, we focused on those novel pigmentation genes that impacted tyrosinase expression in all three genetic backgrounds. Among these were two isoforms of aldehyde dehydrogenase, Aldh1 and Aldh9, well characterized enzymes that regulate ethanol detoxification (Edenberg 2007). A number of chemical inhibitors of these enzymes have been identified (DeMaster et al. 1998), and several of these agents are clinically utilized to induce alcohol intolerance during detoxification interventions; presenting an opportunity for pharmacological validation of the contribution of Aldh activity to melanocyte pigmentation.
1×10^4 MNT-1 cells were plated in a 96 well microtiter plate. 24 hours after plating, cells were incubated with either vehicle, hydroquinone Angeli's salt, or cyanamide. 48 hours after drug treatment, cell lysates were prepared and subjected to immunoblotting with a tyrosinase and ERK antibody. Similar protocols were utilized in primary melanocytes. Melanocytes were plated in 96 well microtiter plate in the presence of drug or vehicle. 24 hours after drug treatment, melanocytes were treated with UV. Cell lysates were prepared 24 hours after UV treatment and subjected to immunoblotting. […] Cells were incubated for an additional 7 days, with one media change on day 4, prior to collection of absorbance and viability values. […]

tyrosinase [1] = assay: Drug treatment, tyrosinase immunoblot in MNT-1 cells; type: cell-based, human; details: 5 uM, doses equivalent to those required for inhibition of Aldh activity in culture
Procedure: (§1) FIG. 2A-G. Novel, pharmaceutically-tractable melanogenesis gene networks converge on tyrosinase expression. a, 4 days post transfection with the indicated siRNAs, MNT-1 whole cell lysates were prepared and analyzed by immunoblot for the indicated proteins. A non-targeting siRNA was used as a transfection control (Control). ERK1/2 is shown as a loading control. b, Those siRNAs that inhibited tryosinase accumulation were examined for consequences on Tyrosinase and MITF gene expression by quantitative rt-PCR. c, The indicated siRNAs, targeting novel pigmentation genes identified in the MNT-1 screen, were tested for consequences on tyrosinase protein accumulation in darkly pigmented primary human melanocyte cultures 6 days post transfection as in a. d, The indicated siRNAs, targeting novel pigmentation genes identified in the MNT-1 screen, were tested for consequences on tyrosinase protein accumulation in moderately pigmented primary human melanocyte cultures 6 days post transfection as in a. e, Pharmacological inhibition of Aldh activity impacts tyrosinase protein accumulation. […] Tyrosinase and ERK1/2 levels were assessed by immunoblot. […]
(§2) 1×10^4 MNT-1 cells were plated in a 96 well microtiter plate. […] Cells were incubated for an additional 7 days, with one media change on day 4, prior to collection of absorbance and viability values. […]

tyrosinase [2] = assay: UV-induced tyrosinase expression in primary melanocytes, immunoblot; type: cell-based, human; details: cyanamide 100 uM, UV-B 24 hours post treatment
Procedure: as §1, §2

melanoma cells = details: cited from earlier work
[3] = test system: primary human melanocytes; details: Hall and Orlow 2005; cited from earlier work
tyrosinase [4] = assay: Bafilomycin rescue of tyrosinase accumulation after siRNA depletion, immunoblot; type: cell-based, human; details: MNT-1 cells, 25 nM bafilomycin
Procedure: FIG. 2A-G. Novel, pharmaceutically-tractable melanogenesis gene networks converge on tyrosinase expression. a, 4 days post transfection with the indicated siRNAs, MNT-1 whole cell lysates were prepared and analyzed by immunoblot for the indicated proteins. A non-targeting siRNA was used as a transfection control (Control). ERK1/2 is shown as a loading control. b, Those siRNAs that inhibited tryosinase accumulation were examined for consequences on Tyrosinase and MITF gene expression by quantitative rt-PCR. c, The indicated siRNAs, targeting novel pigmentation genes identified in the MNT-1 screen, were tested for consequences on tyrosinase protein accumulation in darkly pigmented primary human melanocyte cultures 6 days post transfection as in a. d, The indicated siRNAs, targeting novel pigmentation genes identified in the MNT-1 screen, were tested for consequences on tyrosinase protein accumulation in moderately pigmented primary human melanocyte cultures 6 days post transfection as in a. e, Pharmacological inhibition of Aldh activity impacts tyrosinase protein accumulation. MNT-1 cells (left panel) and primary melanomcyte cultures (right panels) were exposed to 5 uM Aldh inhibitors (cyanamide or Angeli's salt) or the tyrosinase inhibitor hydroxyquinone(Kim and Uyama 2005) for 72 hours as indicated. 24 hours post treatment, cultures were exposed to UV-B at the doses indicated. Tyrosinase and ERK1/2 levels were assessed by immunoblot. […] Subsequently, cells were lysed in Cell Titer Glo and the luminescence and absorbance values were used to calculate inhibition of pigmentation as in FIG. 1a. g, MNT-1 cells transfected with the indicated siRNAs as in a were incubated in the presence and absence of bafilomycin A2 for 24 hours prior to lyses and analyses of tyrosinase protein accumulation. […]
as §2

[5] = test system: primary human melanocytes; assay: Pigment production in darkly pigmented primary human melanocytes, 7 days with drug; type: cell-based; details: seven days
Procedure: as §1, §2

[6] = 24 hour inhibition of lysosome acidification

[Na+].[Na+].[O-][N+]([O-])=NO [Angeli's salt]
pigmentation (MNT-1 cells): inhibited pigmentation
tyrosinase protein accumulation (tyrosinase [1]): inhibited
UV-induced tyrosinase expression (tyrosinase [2]): impaired UV-induced tyrosinase expression
toxicity (melanoma cells): non-toxic

CCN(CC)C(=S)SSC(=S)N(CC)CC [Disulfiram]
toxicity (melanoma cells): toxic to melanoma cells

NC(=S)Nc1ccccc1 [PTU, phenylthiourea]
in vitro pigment inhibition [3]: most potent currently known in vitro pigment inhibitor

CO/C1=C\C(C)=C\[C@@H](C)[C@@H](O)[C@@H](C)C/C(C)=C/C=C/[C@H](OC)[C@@H]([C@@H](C)[C@@H](O)[C@H](C)[C@@]2(O)C[C@@H](O)[C@H](C)[C@@H](C(C)C)O2)OC1=O [bafilomycin, bafilomycin A]
tyrosinase accumulation upon depletion of Msra (tyrosinase [4]): did not restore tyrosinase accumulation
tyrosinase accumulation upon depletion of Rab4a (tyrosinase [4]; [6]): rescued tyrosinase accumulation
tyrosinase accumulation upon depletion of Zdhhc9 (tyrosinase [4]; [6]): rescued tyrosinase accumulation

N#CN [cyanamide]
pigmentation (MNT-1 cells): inhibited pigmentation
tyrosinase protein accumulation (tyrosinase [1]): inhibited
UV-induced tyrosinase expression (tyrosinase [2]): impaired UV-induced tyrosinase expression
melanogenesis [5]: impair melanogenesis
toxicity (melanoma cells): non-toxic
